Results reported in patent US12156860B2, “Disorders implicating PUFA oxidation” (BioJiva LLC, priority 2011, dated 2024).

Legend:
Q-less coq3 yeast = test: Yeast incubated with different ratios of H- and D-PUFA, plate dilution; assay type: cell-based, S. cerevisiae; details: 200 μM total LA and D2-LA at different ratios
Procedure: FIG. 9. […] Wild-type, yeast Q-less coq3, or respiratory deficient cor1 null mutants were incubated in the presence of 200 μM of LA and D2-LA at different ratios of PUFAs. Serial dilutions (1:5) starting at 0.2 OD/ml were spotted on YPD solid plate medium. A zero-time untreated control is shown on the top left. Growth at 30° C.
FIG. 10. […] Serial dilutions (1:5) starting at 0.2 OD/ml were spotted on YPD solid plate medium. Growth at 30° C.
Wild-type, yeast Q-less coq3, or respiratory deficient cor1 null mutants were incubated in the presence of 200 μM of LA and D2-LA at different ratios of PUFAs, as indicated in FIG. 9. Serial dilutions (1:5) starting at 0.2 OD/ml were spotted on YPD solid plate medium. […] Growth was at 30° C.
Serial dilutions (1:5) starting at 0.2 OD/ml were spotted on YPD solid plate medium. Growth was at 30° C.

[1] = tested on: alcoholic liver disease rats; test: Alcoholic liver disease and cirrhosis induced by 5% ethanol diet; assay type: in vivo, Rattus norvegicus, Wistar; details: 5% ethanol diet rats, daily over three months
Procedure: (§1) Fifty male heterozygous rats, 45-days-old, from the Rattus norvegicus species and Wistar lineage are kept in polypropylene cages, in groups of five animals, under a 12 h-clear/dark cycle and under controlled temperature conditions. The induction of alcoholic liver disease and cirrhosis is carried out through a diet containing 5% ethanol for 6 weeks. […] During the study period, the animals are weighed on a weekly basis and the drugs dose is readjusted as necessary. On the first day of the study, besides determining the animals' weight, their blood is collected through retro-orbital plexus puncture for biochemical analysis: alanine-aminotransferase (ALT) and aspartate-aminotransferase (AST) (colorimetric test, using the Labtest kit). One day after concluding the induction period and compound administration (90 days), the animals are sacrificed by decapitation. Once more, each animal's blood is collected for biochemical analysis. Then, laparotomy with total hepatectomy and liver preparation are carried out for lipoperoxidation (LPO) and histological analysis. Liver tissue samples are analyzed using the thiobarbituric-acid reactant substance (TBARS) measurement according to known methods (See Lowry et al. Protein measurement with the folin phenol reagent. J Biol Chem. 1951; 193:265-75) and the results are expressed in nmol of malondialdehyde/mg of protein. Slides with liver fragments are also dyed with hematoxilin-eosine and picrosirius, in order to evaluate the fibrosis level, and with Perls to evaluate the presence of iron stores, having been examined by an only pathologist blinded to the animals' data.

NASH (MCD diet) rats = test: NASH induced by methionine and choline deficient diet; assay type: in vivo, Rattus norvegicus, Wistar; details: daily over three months
Procedure: as §1, with “NASH” for “alcoholic liver disease and cirrhosis”, “deficient in methionine and choline (MCD) according to known procedures (See Rogers A E, Newberne P M. Alcoholic and nutritional fatty liver and cirrhosis. Am J Pathol. 1973; 73:817-20).” for “containing 5% ethanol for 6 weeks.”, “days),” for “days), the”, “data. The minimum histological criterion for NASH diagnosis is the presence of hepatocellular ballooning-related steatosis, involving zone 3 and lobular inflammatory infiltrate. Mallory corpuscles and sinusoidal fibrosis, involving zone 3 might be present or not. The graduation of both necroinflammatory and fibrosis activity is carried out according to known classifications (See Brunt E M, Janney C G, Di Bisceglie A M, Neuschwander-Tetri B A, Bacon B R. Nonalcoholic steatohepatitis: a proposal for grading and staging the histological lesions. Am J Gastroenterol. 1999; 94:2467-74).” for “data.”

Wild-type yeast cells = test: C11-Bodipy 581/591 lipid peroxidation in copper-stressed yeast; assay type: cell-based, S. cerevisiae; details: 200 μM fatty acid 2 hours, then 50 μM CuSO4 60 min
Procedure: Wild-type yeast cells were treated as described above except the yeast were treated with 200 μM of the designated fatty acid for 2 hours, washed with sterile water, and were either not treated (triangles) or treated with 50 μM CuSO4 (squares) at room temperature. After 60 min of copper treatment cells were treated with 8 μM C11-Bodipy 581/591 for 30 min at room temperature. Four 100 μl aliquots were plated in a 96-well plate and the fluorescence was measured.

[2] = Oxidation of mixtures of LA and D2-LA in chlorobenzene; assay type: physicochemical
Procedure: FIG. 8. Dependence of the rate of oxidation of the mixture of LA and D2-LA in chlorobenzene solution on mixture composition. Conditions: [LA]+[11,11-d2-LA]=0.775 M; [AMVN]=0.0217 M; 37° C. RIN=(1.10±0.08)×10^−7 M/sec.
To simulate the likely in vivo conditions, the kinetics of the oxidation of the mixtures of D2-LA and LA were studied (FIG. 8). In the experiments, the concentration of LA plus 11,11-d2-LA was 0.775 M; the concentration of AMVN was 0.0217 M; and the reactions were carried out at 37° C. The results afforded an RIN of 1.10±0.08×10^−7 M/sec.

rat hearts = test: Langendorf isolated heart perfusion model, echo- and electrocardiography; assay type: in vivo; details: rats, 8 weeks supplementation
Procedure: Test compounds disclosed herein can also be assessed using the Langendorf isolated heart perfusion model. […] Following the treatment period, rat hearts are analyzed by echocardiography for measurement of muscle thickness of the left ventricle, left atrium, right ventricle, and right atrium and electrocardiography for measuring electrical activity. After live evaluation, rats are humanely sacrificed and their hearts isolated and connected to the Langendorf isolated perfusion system (See Jennings et al., Am. Surg. 2004; 70(9), 797-800). Left ventricular pressure is then measured with a left ventricular balloon. Coronary flow is also measured. Cardiac function is further assessed by determining the effect of administration of test compounds on the rate of contraction and relaxation of the heart. To determine whether any observed effects on cardiac function are due to the effect of the test compound on mitochondrial function, mitochondrial activity pre-ischemia and post-ischemia is assessed for each of the treatment groups.

SMILES: [2H]C([2H])(/C=C\CCCCC)/C=C\CCCCCCCC(=O)O [D2-LA, 11,11-Dideutero-cis,cis-9,12-Octadecadienoic acid]
- sufficiently minimal amount to cancel the toxicity of LA (Q-less coq3 yeast): 10-15%
- amount of MDA in liver samples (TBARS) [1]: reduce the amount of MDA found in liver samples
- histological signs of fatty liver disease [1]: reverse the histological signs of fatty liver disease
- amount of MDA in liver samples (TBARS) (NASH (MCD diet) rats): reduce the amount of MDA found in liver samples
- histological signs of NASH (NASH (MCD diet) rats): reverse the histological signs of NASH
- levels of lipid peroxidation (C11-Bodipy fluorescence) (Wild-type yeast cells): lower levels of lipid peroxidation similar to yeast not treated with PUFA
- effect during oxidation of mixture with non-deuterated methyl linoleate ([2]; data not shown): qualitatively similar effect
- effect on autoxidation of non-deuterated LA in mixture ([2]; mixtures of D2-LA and LA): ‘protects’ the non-deuterated LA against autoxidation
- symptoms and markers associated with cardiac disorders (rat hearts): reduce symptoms and markers associated with cardiac disorders
